# Laboratory results taken from ChEMBL document CHEMBL5291721, “A preclinical secondary pharmacology resource illuminates target-adverse drug reaction associations of marketed drugs” (Nat Commun, 2023).
# Columns and labels:
# [1] = biological target: Gamma-aminobutyric acid receptor subunit alpha-1/alpha-2/beta-2/gamma-2 (Homo sapiens, UniProt P14867+P18507+P47869+P47870); type: protein-complex assay
# [2] = biological target: Vascular endothelial growth factor receptor 2 (Homo sapiens, UniProt P35968); type: functional
# Chain of Vascular endothelial growth factor receptor 2 (P35968 whole entry): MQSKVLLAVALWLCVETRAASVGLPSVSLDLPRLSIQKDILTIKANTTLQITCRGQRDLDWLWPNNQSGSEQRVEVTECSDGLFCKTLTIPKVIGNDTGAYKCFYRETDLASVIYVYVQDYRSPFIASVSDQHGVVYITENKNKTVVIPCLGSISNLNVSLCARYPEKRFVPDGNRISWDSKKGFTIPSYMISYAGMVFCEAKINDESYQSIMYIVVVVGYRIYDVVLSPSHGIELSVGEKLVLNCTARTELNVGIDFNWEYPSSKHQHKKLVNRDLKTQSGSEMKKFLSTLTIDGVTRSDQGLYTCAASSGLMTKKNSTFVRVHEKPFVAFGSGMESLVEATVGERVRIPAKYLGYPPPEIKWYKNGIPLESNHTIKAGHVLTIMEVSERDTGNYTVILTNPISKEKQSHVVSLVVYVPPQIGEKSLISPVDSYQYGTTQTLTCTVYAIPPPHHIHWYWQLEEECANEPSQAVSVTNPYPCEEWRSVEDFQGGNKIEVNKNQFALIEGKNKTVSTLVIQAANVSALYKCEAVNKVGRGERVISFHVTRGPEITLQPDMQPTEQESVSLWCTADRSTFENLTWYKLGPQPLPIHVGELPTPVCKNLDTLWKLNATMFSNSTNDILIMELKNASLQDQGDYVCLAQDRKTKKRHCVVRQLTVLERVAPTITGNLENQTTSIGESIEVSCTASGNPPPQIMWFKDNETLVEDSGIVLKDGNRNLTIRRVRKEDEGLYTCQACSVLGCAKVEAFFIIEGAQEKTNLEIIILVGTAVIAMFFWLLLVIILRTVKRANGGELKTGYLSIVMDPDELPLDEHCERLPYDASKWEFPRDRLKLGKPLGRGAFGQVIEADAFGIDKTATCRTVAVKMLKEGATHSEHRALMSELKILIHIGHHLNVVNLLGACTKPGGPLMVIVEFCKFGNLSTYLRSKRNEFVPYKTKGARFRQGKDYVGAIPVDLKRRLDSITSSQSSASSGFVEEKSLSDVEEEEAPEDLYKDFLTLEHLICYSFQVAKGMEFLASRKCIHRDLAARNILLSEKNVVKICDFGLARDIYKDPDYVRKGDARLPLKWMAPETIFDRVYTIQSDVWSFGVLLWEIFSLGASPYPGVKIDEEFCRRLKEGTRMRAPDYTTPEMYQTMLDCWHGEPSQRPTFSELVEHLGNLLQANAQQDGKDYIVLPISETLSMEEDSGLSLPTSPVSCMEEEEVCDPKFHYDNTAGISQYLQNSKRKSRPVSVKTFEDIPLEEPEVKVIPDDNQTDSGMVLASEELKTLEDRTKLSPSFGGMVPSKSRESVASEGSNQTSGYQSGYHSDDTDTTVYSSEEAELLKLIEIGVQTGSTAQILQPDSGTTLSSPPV
# [3] = biological target: T1, Muscarinic acetylcholine receptor M1 (Homo sapiens, UniProt P11229); type: functional, cell-based
# T1 sequence (P11229 whole entry): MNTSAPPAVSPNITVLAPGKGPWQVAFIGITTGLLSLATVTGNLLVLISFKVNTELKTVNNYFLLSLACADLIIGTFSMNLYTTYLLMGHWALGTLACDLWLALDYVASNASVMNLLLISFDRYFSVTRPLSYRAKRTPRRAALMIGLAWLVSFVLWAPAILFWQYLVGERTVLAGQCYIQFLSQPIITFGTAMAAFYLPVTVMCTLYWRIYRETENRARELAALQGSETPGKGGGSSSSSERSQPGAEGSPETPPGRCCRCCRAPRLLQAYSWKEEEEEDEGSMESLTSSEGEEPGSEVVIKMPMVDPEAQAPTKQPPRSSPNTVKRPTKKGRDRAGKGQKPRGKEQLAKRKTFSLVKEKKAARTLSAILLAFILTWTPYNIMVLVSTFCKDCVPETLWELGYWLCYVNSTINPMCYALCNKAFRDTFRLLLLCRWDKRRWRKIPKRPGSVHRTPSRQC
# [4] = biological target: T1, Muscarinic acetylcholine receptor M1; type: functional
# [5] = biological target: T2, Amine oxidase [flavin-containing] A (Homo sapiens, UniProt P21397); type: functional
# T2 sequence (P21397 whole entry): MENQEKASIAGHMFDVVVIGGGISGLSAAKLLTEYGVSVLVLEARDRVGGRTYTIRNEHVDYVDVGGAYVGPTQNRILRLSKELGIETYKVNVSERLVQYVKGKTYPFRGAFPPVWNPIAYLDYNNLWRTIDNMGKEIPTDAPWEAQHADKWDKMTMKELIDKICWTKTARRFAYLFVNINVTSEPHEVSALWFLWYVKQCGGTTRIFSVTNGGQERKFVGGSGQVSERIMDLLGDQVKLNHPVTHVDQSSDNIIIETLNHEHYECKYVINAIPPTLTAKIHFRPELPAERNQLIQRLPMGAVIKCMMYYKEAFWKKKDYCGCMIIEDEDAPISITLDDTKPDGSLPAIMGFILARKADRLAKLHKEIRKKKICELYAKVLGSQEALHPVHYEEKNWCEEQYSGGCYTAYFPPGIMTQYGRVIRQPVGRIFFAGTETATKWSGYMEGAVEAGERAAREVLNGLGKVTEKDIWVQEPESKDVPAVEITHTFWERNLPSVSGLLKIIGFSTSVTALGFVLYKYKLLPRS
# Melanocortin receptor 3 = Melanocortin receptor 3 (Homo sapiens, UniProt P41968)
# Chain of Melanocortin receptor 3 (P41968 whole entry): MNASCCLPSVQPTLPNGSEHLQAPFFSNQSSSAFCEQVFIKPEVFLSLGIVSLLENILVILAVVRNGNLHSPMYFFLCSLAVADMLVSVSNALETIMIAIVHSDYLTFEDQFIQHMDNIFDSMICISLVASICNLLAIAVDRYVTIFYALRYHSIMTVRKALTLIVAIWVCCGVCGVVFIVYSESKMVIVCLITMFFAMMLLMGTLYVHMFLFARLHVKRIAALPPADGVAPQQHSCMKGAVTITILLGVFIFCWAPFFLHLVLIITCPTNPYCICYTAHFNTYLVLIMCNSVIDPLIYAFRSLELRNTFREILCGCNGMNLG
# [6] = biological target: 3',5'-cyclic-AMP phosphodiesterase 4D (Homo sapiens, UniProt Q08499); type: functional
# Chain of 3',5'-cyclic-AMP phosphodiesterase 4D (Q08499 whole entry): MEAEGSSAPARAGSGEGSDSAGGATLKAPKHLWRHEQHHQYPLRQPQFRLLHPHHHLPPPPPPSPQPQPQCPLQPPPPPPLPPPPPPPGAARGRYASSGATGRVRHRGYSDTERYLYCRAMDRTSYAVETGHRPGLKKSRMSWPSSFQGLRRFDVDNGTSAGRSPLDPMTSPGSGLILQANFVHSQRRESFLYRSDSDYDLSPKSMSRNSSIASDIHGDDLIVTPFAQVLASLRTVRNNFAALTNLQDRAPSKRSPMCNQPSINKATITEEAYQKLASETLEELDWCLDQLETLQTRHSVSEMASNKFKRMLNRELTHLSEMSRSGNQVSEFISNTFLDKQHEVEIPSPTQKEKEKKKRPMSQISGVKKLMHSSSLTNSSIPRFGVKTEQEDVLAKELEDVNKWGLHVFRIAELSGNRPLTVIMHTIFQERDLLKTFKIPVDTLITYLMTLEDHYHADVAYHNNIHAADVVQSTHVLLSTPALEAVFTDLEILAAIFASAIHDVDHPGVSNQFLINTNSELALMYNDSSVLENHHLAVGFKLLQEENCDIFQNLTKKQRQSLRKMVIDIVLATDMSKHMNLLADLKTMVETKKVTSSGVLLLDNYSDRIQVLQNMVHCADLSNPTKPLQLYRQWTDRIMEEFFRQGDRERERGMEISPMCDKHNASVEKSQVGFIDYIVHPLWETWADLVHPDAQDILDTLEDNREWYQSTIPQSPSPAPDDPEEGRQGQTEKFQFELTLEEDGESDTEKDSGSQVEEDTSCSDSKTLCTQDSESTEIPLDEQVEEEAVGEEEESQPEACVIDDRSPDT
# Histamine H1 receptor = Histamine H1 receptor (Homo sapiens, UniProt P35367)
# Chain of Histamine H1 receptor (P35367 whole entry): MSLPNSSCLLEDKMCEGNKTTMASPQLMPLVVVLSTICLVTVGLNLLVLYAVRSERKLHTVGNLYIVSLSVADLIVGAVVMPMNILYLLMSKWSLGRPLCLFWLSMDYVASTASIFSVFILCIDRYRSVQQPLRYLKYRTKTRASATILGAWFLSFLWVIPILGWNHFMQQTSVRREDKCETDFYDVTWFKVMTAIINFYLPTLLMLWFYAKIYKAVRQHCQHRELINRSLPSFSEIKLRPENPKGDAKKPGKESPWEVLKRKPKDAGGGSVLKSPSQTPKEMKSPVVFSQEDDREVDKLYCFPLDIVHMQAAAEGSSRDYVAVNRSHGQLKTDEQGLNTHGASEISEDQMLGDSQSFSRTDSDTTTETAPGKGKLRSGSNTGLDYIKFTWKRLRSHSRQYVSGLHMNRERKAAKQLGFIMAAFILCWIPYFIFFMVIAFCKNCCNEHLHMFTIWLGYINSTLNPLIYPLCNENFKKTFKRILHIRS
# Adenosine receptor A2a = Adenosine receptor A2a (Homo sapiens, UniProt P29274)
# [7] = biological target: Sodium-dependent noradrenaline transporter (Homo sapiens, UniProt P23975)
# [8] = biological target: Sodium-dependent dopamine transporter (Homo sapiens, UniProt Q01959)
# D(3) dopamine receptor = D(3) dopamine receptor (Homo sapiens, UniProt P35462)
# Further: assay procedure not described here.
# Chain of Gamma-aminobutyric acid receptor subunit alpha-1/alpha-2/beta-2/gamma-2 (P14867 whole entry): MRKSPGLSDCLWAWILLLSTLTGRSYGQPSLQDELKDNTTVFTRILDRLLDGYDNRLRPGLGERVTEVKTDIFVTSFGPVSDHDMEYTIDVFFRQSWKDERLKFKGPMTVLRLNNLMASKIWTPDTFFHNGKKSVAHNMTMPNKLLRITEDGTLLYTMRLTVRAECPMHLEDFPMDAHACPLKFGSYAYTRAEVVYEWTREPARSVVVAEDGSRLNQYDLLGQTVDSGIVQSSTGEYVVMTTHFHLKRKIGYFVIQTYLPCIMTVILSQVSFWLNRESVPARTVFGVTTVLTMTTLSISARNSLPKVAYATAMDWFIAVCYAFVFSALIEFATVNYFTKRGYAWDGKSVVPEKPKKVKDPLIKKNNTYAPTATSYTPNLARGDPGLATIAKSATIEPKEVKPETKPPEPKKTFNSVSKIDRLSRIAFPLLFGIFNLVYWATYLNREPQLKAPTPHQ
# Chain of Gamma-aminobutyric acid receptor subunit alpha-1/alpha-2/beta-2/gamma-2 (P47870 whole entry): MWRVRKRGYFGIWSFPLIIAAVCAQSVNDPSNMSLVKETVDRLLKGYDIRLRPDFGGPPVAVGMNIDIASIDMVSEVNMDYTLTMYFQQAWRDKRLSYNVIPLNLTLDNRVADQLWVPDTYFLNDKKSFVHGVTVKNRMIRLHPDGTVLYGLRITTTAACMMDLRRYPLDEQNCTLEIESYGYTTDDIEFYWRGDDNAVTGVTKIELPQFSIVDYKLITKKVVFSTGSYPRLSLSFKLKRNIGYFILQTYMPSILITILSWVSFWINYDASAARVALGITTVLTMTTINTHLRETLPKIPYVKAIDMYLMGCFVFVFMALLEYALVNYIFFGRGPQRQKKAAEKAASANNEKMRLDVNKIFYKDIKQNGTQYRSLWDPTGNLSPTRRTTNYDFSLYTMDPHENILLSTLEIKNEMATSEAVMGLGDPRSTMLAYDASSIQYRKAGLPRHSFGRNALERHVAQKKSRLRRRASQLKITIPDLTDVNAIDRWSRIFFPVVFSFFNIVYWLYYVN
# Chain of Gamma-aminobutyric acid receptor subunit alpha-1/alpha-2/beta-2/gamma-2 (P18507 whole entry): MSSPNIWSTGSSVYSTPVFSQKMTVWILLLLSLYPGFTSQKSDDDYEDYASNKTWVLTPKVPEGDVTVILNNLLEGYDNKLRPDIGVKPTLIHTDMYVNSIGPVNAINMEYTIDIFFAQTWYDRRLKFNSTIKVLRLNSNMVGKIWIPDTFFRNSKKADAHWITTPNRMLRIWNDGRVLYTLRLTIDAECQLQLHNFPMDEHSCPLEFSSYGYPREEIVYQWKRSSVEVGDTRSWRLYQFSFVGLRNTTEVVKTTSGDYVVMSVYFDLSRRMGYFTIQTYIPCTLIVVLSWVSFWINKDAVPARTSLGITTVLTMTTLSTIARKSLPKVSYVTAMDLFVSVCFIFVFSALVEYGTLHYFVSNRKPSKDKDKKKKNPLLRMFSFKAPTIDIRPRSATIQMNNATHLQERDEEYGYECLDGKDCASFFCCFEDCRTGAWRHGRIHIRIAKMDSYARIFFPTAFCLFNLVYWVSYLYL
# Chain of Gamma-aminobutyric acid receptor subunit alpha-1/alpha-2/beta-2/gamma-2 (P47869 whole entry): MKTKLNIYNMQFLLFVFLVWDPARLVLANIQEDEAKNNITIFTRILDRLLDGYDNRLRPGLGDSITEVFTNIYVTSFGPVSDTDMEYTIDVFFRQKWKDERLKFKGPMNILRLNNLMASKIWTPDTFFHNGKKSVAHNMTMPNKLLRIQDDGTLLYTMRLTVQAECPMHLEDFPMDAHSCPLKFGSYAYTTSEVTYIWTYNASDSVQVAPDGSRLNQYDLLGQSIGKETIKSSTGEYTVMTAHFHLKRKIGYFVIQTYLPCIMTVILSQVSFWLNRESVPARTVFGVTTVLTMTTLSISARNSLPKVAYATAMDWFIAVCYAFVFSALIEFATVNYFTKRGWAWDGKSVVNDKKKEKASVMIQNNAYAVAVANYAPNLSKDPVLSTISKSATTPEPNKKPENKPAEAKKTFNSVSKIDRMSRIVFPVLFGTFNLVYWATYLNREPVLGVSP
Structure (SMILES),AC50 [1],AC50 [2],AC50 [3],further results
Nc1nc2c(ncn2CCC(CO)CO)c(=O)[nH]1 [PENCICLOVIR],> 30 µM,> 30 µM,–,–
C[C@@H]1O[C@@H](OC[C@H]2O[C@@H](Oc3c(-c4ccc(OCCO)c(OCCO)c4)oc4cc(OCCO)cc(O)c4c3=O)[C@H](O)[C@@H](O)[C@@H]2O)[C@H](O)[C@H](O)[C@H]1O [TROXERUTIN],> 30 µM,> 30 µM,> 30 µM,–
CC(C)Cc1ccc(C(C)C(=O)NO)cc1 (centres undefined) [IBUPROXAM],> 30 µM,> 30 µM,> 30 µM,–
COc1ccc2c(c1)OC(C)(C)C(c1ccccc1)C2c1ccc(OCCN2CCCC2)cc1 (centres undefined) [ORMELOXIFENE],> 10 µM,> 30 µM,10.5 µM,–
CC[C@@H]1/C=C(\C)C[C@H](C)C[C@H](OC)[C@H]2O[C@@](O)(C(=O)C(=O)N3CCCC[C@H]3C(=O)O[C@H](/C(C)=C/[C@@H]3CC[C@H](Cl)[C@H](OC)C3)[C@H](C)[C@@H](O)CC1=O)[C@H](C)C[C@@H]2OC [PIMECROLIMUS],> 10 µM,> 30 µM,> 30 µM,–
CC(C(=O)O)c1ccc2c(c1)Cc1cccnc1O2 (centres undefined) [PRANOPROFEN],> 30 µM,> 30 µM,> 30 µM,–
CCO[C@@H](Cc1ccc(OCCn2c(C)ccc2-c2ccc(SC)cc2)cc1)C(=O)O [SAROGLITAZAR],> 3 µM,> 30 µM,18.7 µM,–
Nc1nc(-n2cc(C(=O)O)c(=O)c3cc(F)c(N4CC(O)C4)c(Cl)c32)c(F)cc1F [DELAFLOXACIN],> 30 µM,> 30 µM,> 30 µM,–
CC(=O)OC(C)C[N+](C)(C)C (centres undefined) [METHACHOLINE],> 30 µM,> 30 µM,0.0079 µM,–
CN1CCC2=C(C1)c1ccccc1Cc1ccccc12 [SETIPTILINE],> 30 µM,> 30 µM,> 30 µM,–
O=C(O)c1cccc(-c2noc(-c3ccccc3F)n2)c1,> 30 µM,> 30 µM,> 30 µM,AC50 [4]: > 10 µM; AC50 [5]: 5.3 µM; AC50 (Melanocortin receptor 3): > 30 µM; AC50 [6]: > 30 µM; AC50 (Histamine H1 receptor): > 10 µM; AC50 (Adenosine receptor A2a): > 30 µM; AC50 [7]: > 30 µM; AC50 [8]: > 30 µM
CN1CCN(C(c2ccccc2)c2ccccc2)CC1 [CYCLIZINE],> 30 µM,> 30 µM,–,–
CCCCN(CCCC)CCCOC(=O)c1ccc(N)cc1 [BUTACAINE],–,> 30 µM,> 30 µM,–
CCOC(=O)C(c1c(O)c2ccccc2oc1=O)c1c(O)c2ccccc2oc1=O [ETHYL BISCOUMACETATE],–,> 30 µM,> 30 µM,–
C[C@@H]1C[C@H]2[C@@H]3C[C@H](F)C4=CC(=O)C=C[C@]4(C)[C@@]3(F)[C@@H](O)C[C@]2(C)[C@@]1(O)C(=O)COC(=O)C(C)(C)C [FLUMETHASONE PIVALATE],> 30 µM,> 30 µM,> 30 µM,–
CCOc1ccc(/C=C2\NCCc3cc(OCC)c(OCC)cc32)cc1OCC [DROTAVERINE],> 30 µM,> 30 µM,> 30 µM,–
O=C1NCC2(CCN(CCc3ccccc3)CC2)O1 [FENSPIRIDE],–,> 30 µM,> 30 µM,–
CCN(CC)CCNc1ccc(C)c2sc3ccccc3c(=O)c12 [LUCANTHONE],> 30 µM,> 30 µM,> 30 µM,–

Structure (SMILES),AC50 [1],AC50 [2],AC50 [3],further results
CC/C=C\C/C=C\C/C=C\C/C=C\C/C=C\CCCC(=O)O [ICOSAPENT],> 30 µM,> 30 µM,> 30 µM,–
O=C(O)CCCN1CCC(O[C@@H](c2ccc(Cl)cc2)c2ccccn2)CC1 [BEPOTASTINE],–,> 30 µM,> 30 µM,–
O=C(c1ccc(F)c(F)c1Nc1ccc(I)cc1F)N1CC(O)([C@@H]2CCCCN2)C1 [COBIMETINIB],–,> 30 µM,17.4 µM,–
Oc1c(I)cc(I)c2cccnc12 [IODOQUINOL],> 30 µM,> 30 µM,–,–
Nc1ccc(C(=O)O)cc1 [AMINOBENZOIC ACID],–,> 30 µM,> 30 µM,–
Cc1c(O)cccc1C(=O)N[C@@H](CSc1ccccc1)[C@H](O)CN1C[C@H]2CCCC[C@H]2C[C@H]1C(=O)NC(C)(C)C,> 30 µM,> 30 µM,–,–
Oc1cccc2cccnc12 [OXYQUINOLINE],> 30 µM,> 30 µM,–,–
CCCC1C(=O)N2C(N(C)C)=Nc3ccc(C)cc3N2C1=O (centres undefined) [APAZONE],> 30 µM,> 30 µM,> 30 µM,–
C[C@@H]1C[C@H]2[C@@H]3C[C@H](F)C4=CC(=O)C(Cl)=C[C@]4(C)[C@@]3(F)[C@@H](O)C[C@]2(C)[C@@]1(O)C(=O)CO [HALOMETASONE],–,> 30 µM,> 30 µM,–
C[C@@H]1C[C@H]2[C@@H]3CCC4=CC(=O)C=C[C@]4(C)[C@@]3(F)[C@@H](O)C[C@]2(C)[C@H]1C(=O)CO [DESOXIMETASONE],> 30 µM,> 30 µM,–,–
CN(Cc1cc(Br)cc(Br)c1N)C1CCCCC1 [BROMHEXINE],> 30 µM,> 30 µM,–,–
COc1ccc(-c2cc(=O)c3c(O)cc(O[C@@H]4O[C@H](CO[C@@H]5O[C@@H](C)[C@H](O)[C@@H](O)[C@H]5O)[C@@H](O)[C@H](O)[C@H]4O)cc3o2)cc1O [DIOSMIN],> 30 µM,> 30 µM,> 30 µM,–
C1N2CN3CN1CN(C2)C3 [METHENAMINE],–,> 30 µM,> 30 µM,–
CC1=NN(c2ccccc2)C(=O)C1 [EDARAVONE],> 30 µM,> 30 µM,–,–
CS(=O)(=O)Nc1cc2occ(NC=O)c(=O)c2cc1Oc1ccccc1 [IGURATIMOD],> 30 µM,> 10 µM,> 30 µM,AC50 [4]: > 30 µM; AC50 [5]: > 30 µM; AC50 (Melanocortin receptor 3): > 30 µM; AC50 [6]: 9.8 µM; AC50 (Histamine H1 receptor): > 30 µM; AC50 [7]: > 30 µM; AC50 [8]: > 30 µM; AC50 (D(3) dopamine receptor): > 30 µM
Cc1nc(-c2ccc(OCC(C)C)c(C#N)c2)sc1C(=O)O [FEBUXOSTAT],–,> 30 µM,> 30 µM,–
COc1ccc(CCC(C)NCC(O)c2ccc(O)c([S+](C)[O-])c2)cc1 (centres undefined) [SULFINALOL],> 30 µM,> 30 µM,> 30 µM,–
